In ChEMBL document CHEMBL1201862, “PubChem BioAssay data set” (2004):
Active and inactive are the calls of the source. Rule as the data show it: actives have a measured IC50 and inactives only a lower limit.

Target: Envelope glycoprotein gp160 (Human immunodeficiency virus 1, UniProt Q6QLK5)
Assay: inhibitors of HIV fusion peptide binding, primary screen, biochemical, uHTS, fluorescence dequenching (AID 1986)

Envelope glycoprotein gp160, sequence (Q6QLK5 whole entry, the tested form may be a part): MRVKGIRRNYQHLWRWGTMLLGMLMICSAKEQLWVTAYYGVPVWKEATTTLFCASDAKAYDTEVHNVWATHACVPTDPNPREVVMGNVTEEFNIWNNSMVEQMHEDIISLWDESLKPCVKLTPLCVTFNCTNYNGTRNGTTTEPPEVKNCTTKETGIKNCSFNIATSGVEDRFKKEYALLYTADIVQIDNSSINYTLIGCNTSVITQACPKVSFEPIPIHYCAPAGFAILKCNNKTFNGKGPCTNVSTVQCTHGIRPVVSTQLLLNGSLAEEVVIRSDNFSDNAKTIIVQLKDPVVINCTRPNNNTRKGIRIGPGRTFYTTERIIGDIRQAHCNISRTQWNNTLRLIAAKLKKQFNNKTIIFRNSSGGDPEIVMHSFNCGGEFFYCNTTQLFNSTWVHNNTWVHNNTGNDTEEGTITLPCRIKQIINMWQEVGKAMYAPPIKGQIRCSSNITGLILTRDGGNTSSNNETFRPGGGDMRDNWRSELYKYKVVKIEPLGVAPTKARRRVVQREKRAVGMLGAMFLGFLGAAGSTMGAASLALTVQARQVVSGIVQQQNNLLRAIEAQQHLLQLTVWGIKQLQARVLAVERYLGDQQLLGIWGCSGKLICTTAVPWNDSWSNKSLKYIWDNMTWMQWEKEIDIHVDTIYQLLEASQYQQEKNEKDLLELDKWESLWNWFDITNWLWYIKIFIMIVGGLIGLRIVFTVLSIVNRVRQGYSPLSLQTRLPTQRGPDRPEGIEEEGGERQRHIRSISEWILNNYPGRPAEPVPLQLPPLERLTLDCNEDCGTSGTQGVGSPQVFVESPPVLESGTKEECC

Cc1c(CCC(=O)O)c(=O)oc2c(C)c3occ(-c4ccc(Br)cc4)c3cc12
IC50: 21.3 µM (active)
